Laboratory results reported in paper PMC6543040, “Structural and biochemical characterization of Rv0187, an O-methyltransferase from Mycobacterium tuberculosis” (Scientific Reports, 2019).

Assays:
Rv0187 [1] = target: T1, Rv0187 (Mycobacterium tuberculosis, UniProt O07431); format: biochemical; parameters: pLATE31-Rv0187 (C-terminal His6-tag)
Rv0187 [2] = target: T1, Rv0187; experiment: co-crystal structure, […] Å; format: binding; parameters: C-terminal His6-tag after a TEV cleavage site (pLATE31-Rv0187-TEV)
O=C(O)c1ccc(O)c(O)c1 = experiment: purified protein; conditions: SAM; Mg2+
COc1cc(C(=O)O)cc(O)c1O = experiment: purified protein; conditions: SAM; Mg2+
[3] = test system: O=C(O)/C=C/c1ccc(O)c(O)c1; experiment: purified protein; conditions: SAM; Mg2+
Rv0187 [4] = target: T1, Rv0187; experiment: biochemical; format: binding
SEC = target: the molecule itself; experiment: SEC

T1 sequence (O07431 whole entry): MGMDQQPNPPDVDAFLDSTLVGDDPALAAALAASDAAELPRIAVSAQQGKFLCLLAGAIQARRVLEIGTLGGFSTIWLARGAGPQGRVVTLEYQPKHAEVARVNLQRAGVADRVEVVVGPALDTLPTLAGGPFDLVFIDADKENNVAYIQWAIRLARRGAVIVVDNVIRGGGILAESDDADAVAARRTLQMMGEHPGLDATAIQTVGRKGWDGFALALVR

For `NCCc1ccc(O)c(O)c1` [dopamine], the “in vitro methyltransfer assay, HPLC/LC-MS” value (Rv0187 [1]) was “DHA, dopamine and CA were preferentially methylated at the meta position”.

With `O=C(O)c1cc(O)c(O)c(O)c1` [GA, gallic acid] the “in vitro methyltransfer assay, HPLC/LC-MS” value (Rv0187 [1]) was “PCA, 5OMeBA, and GA were more readily modified at the para-hydroxyl group”.

In the case of `Nc1ncnc2c1ncn2[C@@H]1O[C@H](CSCC[C@H](N)C(=O)O)[C@@H](O)[C@H]1O` [SAH, S-adenosyl-l-homocysteine], the “co-crystal structure, 1.64 Å” value (Rv0187 [2]) is reported as “each subunit exhibits the unambiguous presence of a divalent metal ion and SAH”.

“Rv0187 (Mycobacterium tuberculosis H37Rv)” was tested, and the Km (O=C(O)c1ccc(O)c(O)c1) was 150 ± 20 µM, the Km (COc1cc(C(=O)O)cc(O)c1O) was 30 ± 4 µM and the Km [3] was 490 ± 170 µM.

With `O=c1[nH]c(=O)n([C@@H]2O[C@H](CO)[C@@H](O)[C@H]2O)cc1O` [ho^5U, 5-hydroxyuridine] the “in vitro methyltransfer assay, HPLC/LC-MS” value (Rv0187 [1]) was “methylation of 5-hydroxyuridine (ho^5U) yielded a single product, 5-methoxyuridine (mo^5U)”.

In the case of `O=c1c(O)c(-c2ccc(O)c(O)c2)oc2cc(O)cc(O)c12` [quercetin], the “in vitro methyltransfer assay, HPLC/LC-MS” value (Rv0187 [1]) is reported as “Rv0187 was able to methylate flavonoids (luteolin and quercetin), although the precise methylation site could not be assigned”.

`C[S+](CC[C@H](N)C(=O)[O-])C[C@H]1O[C@@H](n2cnc3c(N)ncnc32)[C@H](O)[C@@H]1O` (stereo partly drawn) [SAM, S-adenosyl-l-methionine] showed a Kd (Rv0187 [4]) of 9.3 ± 0.7 µM.

For `O=Cc1ccc(O)c(O)c1` [DHA, 3,4-dihydroxy-benzaldehyde], the “in vitro methyltransfer assay, HPLC/LC-MS” value (Rv0187 [1]) was “DHA, dopamine and CA were preferentially methylated at the meta position”.

B1: Rv0187 fused with a C-terminal His6-tag (pLATE31-Rv0187 construct) (enzyme)
chain: MDQQPNPPDVDAFLDSTLVGDDPALAAALAASDAAELPRIAVSAQQGKFLCLLAGAIQARRVLEIGTLGGFSTIWLARGAGPQGRVVTLEYQPKHAEVARVNLQRAGVADRVEVVVGPALDTLPTLAGGPFDLVFIDADKENNVAYIQWAIRLARRGAVIVVDNVIRGGGILAESDDADAVAARRTLQMMGEHPGLDATAIQTVGRKGWDGFALALVR
notes: also called MTB Rv0187; C-terminal His6-tagged construct; not shown: His6, C-terminal, kept
With B1 the “stoichiometry N” value (SEC) was 2.
